# Assay results as given in patent US12310975B2, “Modulators of BCL6 proteolysis and associated methods of use” (Arvinas Operations, Inc., priority 2019, dated 2025).
# Target: BCL6 (Homo sapiens (Human), UniProt P41182)
# Assay: Immunofluorescence high content imaging of BCL6 degradation in T47D cells
# Type: cell-based
# Settings: T47D cells
# How it was run: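 Seed T47D in RPMI1640-10% FBS to reach ~70-90% confluence at endpoint; add degrader next day (11-point 3-fold series, top 0.1 or 1 μM final) for 3 days. Then fix, permeabilize, stain BCL6 with nuclear Hoechst, and image.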
SMILES,Dmax,IC50
"CNC(=O)COc1cc2cc(Nc3nc(N4CCC(OC5CC6(CCN(c7cccc8c7C(=O)N(C7CCC(=O)NC7=O)C8=O)CC6)C5)CC4)ncc3Cl)ccc2n(C(C)C)c1=O (stereo not drawn) [compound 391, 2-{[6-({5-chloro-2-[4-({7-[2-(2,6-dioxopiperidin-3-yl)-1,3-dioxo-2,3-dihydro-1H-isoindol-4-yl]-7-azaspiro[3.5]nonan-2-yl}oxy)piperidin-1-yl]pyrimidin-4-yl}amino)-2-oxo-1-(propan-2-yl)-1,2-dihydroquinolin-3-yl]oxy}-N-methylacetamide]",≥ 70%,< 10 nM
"CNC(=O)COc1cc2cc(Nc3nc(N4CCC5(CC4)CC(OC4CCN(c6cccc7c6C(=O)N(C6CCC(=O)NC6=O)C7=O)CC4)C5)ncc3Cl)ccc2n(C(C)C)c1=O (stereo not drawn) [compound 393, 2-{[6-({5-chloro-2-[2-({1-[2-(2,6-dioxopiperidin-3-yl)-1,3-dioxo-2,3-dihydro-1H-isoindol-4-yl]piperidin-4-yl}oxy)-7-azaspiro[3.5]nonan-7-yl]pyrimidin-4-yl}amino)-2-oxo-1-(propan-2-yl)-1,2-dihydroquinolin-3-yl]oxy}-N-methylacetamide]",≥ 70%,< 10 nM
"CC[C@H]1CN(c2ncc(Cl)c(Nc3ccc4c(c3)cc(OCC(=O)NC)c(=O)n4C(C)C)n2)C[C@@H](COc2ccc3c(c2)C(=O)N(C2CCC(=O)NC2=O)C3=O)O1 (stereo partly drawn) [compound 394, 2-{[6-({5-chloro-2-[(2S,6S)-2-({[2-(2,6-dioxopiperidin-3-yl)-1,3-dioxo-2,3-dihydro-1H-isoindol-5-yl]oxy}methyl)-6-ethylmorpholin-4-yl]pyrimidin-4-yl}amino)-2-oxo-1-(propan-2-yl)-1,2-dihydroquinolin-3-yl]oxy}-N-methylacetamide]",50 to 70%,< 10 nM
"CNC(=O)COc1cc2cc(Nc3nc(N4CCN(C(C)(C)C5CCN(c6cccc(C(=O)NC7CCC(=O)NC7=O)[n+]6[O-])CC5)CC4)ncc3Cl)ccc2n(C)c1=O (stereo not drawn) [compound 396, 2-[4-(2-{4-[5-chloro-4-({1-methyl-3-[(methylcarbamoyl)methoxy]-2-oxo-1,2-dihydroquinolin-6-yl}amino)pyrimidin-2-yl]piperazin-1-yl}propan-2-yl)piperidin-1-yl]-6-[(2,6-dioxopiperidin-3-yl)carbamoyl]pyridin-1-ium-1-olate]",< 50%,10 to 50 nM

# Now from value to compound:
Dmax,IC50,SMILES
50 to 70%,< 10 nM,"CNC(=O)COc1cc2cc(Nc3nc(N4CCC(OC5CC6(CCN(c7ccc8c(c7)C(=O)N(C7CCC(=O)NC7=O)C8=O)CC6)C5)CC4)ncc3Cl)ccc2n(C(C)C)c1=O (stereo not drawn) [compound 390, 2-{[6-({5-chloro-2-[4-({7-[2-(2,6-dioxopiperidin-3-yl)-1,3-dioxo-2,3-dihydro-1H-isoindol-5-yl]-7-azaspiro[3.5]nonan-2-yl}oxy)piperidin-1-yl]pyrimidin-4-yl}amino)-2-oxo-1-(propan-2-yl)-1,2-dihydroquinolin-3-yl]oxy}-N-methylacetamide]"
–,≥ 100 nM,"CNC(=O)COc1cc2cc(Nc3nc(N4CCC5(CC4)CC(OC4CCN(c6ccc7c(c6)C(=O)N(C6CCC(=O)NC6=O)C7=O)CC4)C5)ncc3Cl)ccc2n(C(C)C)c1=O (stereo not drawn) [compound 392, 2-{[6-({5-chloro-2-[2-({1-[2-(2,6-dioxopiperidin-3-yl)-1,3-dioxo-2,3-dihydro-1H-isoindol-5-yl]piperidin-4-yl}oxy)-7-azaspiro[3.5]nonan-7-yl]pyrimidin-4-yl}amino)-2-oxo-1-(propan-2-yl)-1,2-dihydroquinolin-3-yl]oxy}-N-methylacetamide]"
–,1000 nM,"CNC(=O)CCN1Cc2cc(Nc3nc(N4CCN(CC5CCN(c6ccc7c(c6)C(=O)N(C6CCC(=O)NC6=O)C7=O)CC5)CC4)ncc3Cl)ccc2CC1=O (stereo not drawn) [compound 395, 3-[7-({5-chloro-2-[4-({1-[2-(2,6-dioxopiperidin-3-yl)-1,3-dioxo-2,3-dihydro-1H-isoindol-5-yl]piperidin-4-yl}methyl)piperazin-1-yl]pyrimidin-4-yl}amino)-3-oxo-1,2,3,4-tetrahydroisoquinolin-2-yl]-N-methylpropanamide]"
